Experimental data as given in BindingDB's records for patent US12187709 (Genentech, 2025).

Key:
[1] = target: T1, E3 ubiquitin-protein ligase CBL (Homo sapiens, UniProt P22681); experiment: Cbl-b and C-Cbl LCK Ub TR-FRET Assay
Procedure: 6 μL of detection mixture was added to all wells and briefly centrifuged before incubating for 20 min at room temperature. […] IC50 was generated using no LCK as the low control and DMSO as the high control.

[2] = target: E3 ubiquitin-protein ligase CBL-B (Homo sapiens, UniProt Q13191); experiment: Multi-Point Chaser SPR Assay Variation
Procedure: (§1) Table 4: Chaser assay utilize a single cycle kinetics SPR experiment with a contact time of 120 seconds, a flow rate of 50 μl/min and a dissociation time of 450 seconds. […] The kd is measured independently by determining the percentage unoccupied compound binding site over time by measuring the binding of a chaser compound measured by SPR.Chaser binding was measured by a multicycle kinetics SPR experiment using a contact time of 20 seconds, a flow rate of 30 μl/min, and a dissociation time of 120 seconds. […] The % compound bound at a given time was determined by comparison to a single injection of chaser preceding the single cycle kinetics titration defined below.% Compound Bound=(1−(RUT/RUT0))*100

[3] = target: T1, E3 ubiquitin-protein ligase CBL; experiment: Multi-Point Chaser SPR Assay Variation
Procedure: as §1

Chain of E3 ubiquitin-protein ligase CBL-B (Q13191 whole entry): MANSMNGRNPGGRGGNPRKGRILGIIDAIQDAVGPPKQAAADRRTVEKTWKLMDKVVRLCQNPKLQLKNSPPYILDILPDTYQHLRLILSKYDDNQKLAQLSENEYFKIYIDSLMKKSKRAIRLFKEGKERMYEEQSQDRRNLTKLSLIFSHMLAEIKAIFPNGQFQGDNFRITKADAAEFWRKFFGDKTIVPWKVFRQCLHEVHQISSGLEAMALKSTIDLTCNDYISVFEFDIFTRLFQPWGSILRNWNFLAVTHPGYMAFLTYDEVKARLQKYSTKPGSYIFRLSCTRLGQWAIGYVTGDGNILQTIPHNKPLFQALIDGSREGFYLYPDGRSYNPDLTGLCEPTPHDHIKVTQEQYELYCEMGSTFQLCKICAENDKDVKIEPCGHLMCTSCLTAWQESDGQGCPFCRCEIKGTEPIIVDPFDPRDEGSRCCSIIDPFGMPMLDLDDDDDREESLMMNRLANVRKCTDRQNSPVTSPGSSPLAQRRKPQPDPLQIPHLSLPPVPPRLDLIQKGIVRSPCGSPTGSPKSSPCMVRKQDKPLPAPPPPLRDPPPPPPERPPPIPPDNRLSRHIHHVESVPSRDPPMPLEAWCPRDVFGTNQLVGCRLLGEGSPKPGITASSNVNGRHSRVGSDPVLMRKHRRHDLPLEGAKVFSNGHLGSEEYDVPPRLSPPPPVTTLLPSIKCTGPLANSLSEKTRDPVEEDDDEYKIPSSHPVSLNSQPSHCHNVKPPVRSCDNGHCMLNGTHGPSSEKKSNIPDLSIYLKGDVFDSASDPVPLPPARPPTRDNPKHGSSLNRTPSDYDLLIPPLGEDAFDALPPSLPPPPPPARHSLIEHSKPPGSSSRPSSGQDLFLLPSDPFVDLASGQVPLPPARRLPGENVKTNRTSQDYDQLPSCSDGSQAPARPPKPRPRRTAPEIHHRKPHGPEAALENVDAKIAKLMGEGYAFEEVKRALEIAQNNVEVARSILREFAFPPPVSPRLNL

IC50 [1] [nM]	Kd [2] [nM]	Kd [3] [nM]	Structure (SMILES)
≥ 20000	–	–	CO[C@@](c1cccc(N2Cc3c(cc(CNC4(C)CCC4)cc3C(F)(F)F)C2=O)c1)(c1nncn1C)C1CCC1 (single isomer, unassigned) [US12187709, Compound 118]
53	6.5	20	Cn1cnnc1[C@]1(c2cc(NC3CCCCC3)nc(N3Cc4c(cc(CNC5(C)CCC5)cc4C(F)(F)F)C3=O)c2)C[C@@H](C)C1 [US12187709, Compound 50]
61	–	–	Cn1cnnc1[C@]1(c2cc(NC3CCCCC3)nc(N3Cc4c(cc(CNC5(C)CCC5)cc4C(F)(F)F)C3=O)c2)C[C@H](C)C1 [US12187709, Compound 51]
9.4	0.95	11	Cn1cnnc1[C@]1(c2cc(NC3CCCC3)nc(N3Cc4c(cc(CNC5(C)CCC5)cc4C(F)(F)F)C3=O)c2)C[C@@H](C)C1 [US12187709, Compound 52]
6.3	0.7	6.5	Cn1cnnc1[C@]1(c2cc(NC3CCCC3)nc(N3Cc4c(cc(CNC5(C)CCC5)cc4C(F)(F)F)C3=O)c2)C[C@H](C)C1 [US12187709, Compound 53]
115	1.3	15	Cn1cnnc1[C@]1(c2cc(OC3CCCC3)nc(N3Cc4c(cc(CNC5(C)CCC5)cc4C(F)(F)F)C3=O)c2)C[C@H](C)C1 [US12187709, Compound 54]
9.4	–	–	Cn1cnnc1[C@]1(c2cc(OC3CCCC3)nc(N3Cc4c(cc(CNC5(C)CCC5)cc4C(F)(F)F)C3=O)c2)C[C@@H](C)C1 [US12187709, Compound 55]
≥ 20000	–	–	CC(=O)N1CC(c2cccc(N3Cc4c(cc(CNC5(C)CCC5)cc4C(F)(F)F)C3=O)c2)(c2nncn2C)C1 [US12187709, Compound 112]
